Data on four molecules can be found in patent US8017607B2, “N-substituted-pyrrolidines as inhibitors of MDM2-P-53 interactions” (Hoffmann-La Roche Inc., priority 2009, dated 2011).

The assay deals with interaction between p53 and MDM2 proteins (recombinant GST-tagged MDM2, biotinylated p53 peptide) (Homo sapiens, UniProt Q00987). Nature of the assay: HTRF assay of inhibition of the p53-MDM2 interaction. Format: binding. The settings on record: bsa: 0.02%. How it is done:
The ability of the compounds to inhibit the interaction between p53 and MDM2 proteins was measured by an HTRF (homogeneous time-resolved fluorescence) assay in which recombinant GST-tagged MDM2 binds to a peptide that resembles the MDM2-interacting region of p53 (Lane et al.). Binding of GST-MDM2 protein and p53-peptide (biotinylated on its N-terminal end) is registered by the FRET (fluorescence resonance energy transfer) between Europium (Eu)-labeled anti-GST antibody and streptavidin-conjugated Allophycocyanin (APC).
[…] Add 10 uL diluted compounds (1:5 dilution in reaction buffer) to each well, mix by shaking. Add 20 uL biotinylated p53 peptide (180 nM working solution) in reaction buffer to each well and mix on shaker. Incubate at 37° C. for 1 h. Add 20 uL streptavidin-APC and Eu-anti-GST antibody mixture (6 nM Eu-anti-GST and 60 nM streptavidin-APC working solution) in TBS buffer with 0.2% BSA, shake at room temperature for 30 minutes and read using a TRF-capable plate reader at 665 and 615 nm (Victor 5, Perkin ElmerWallac). If not specified, the reagents were purchased from Sigma Chemical Co.
In general terms: In TR-FRET formats the signal depends on donor and acceptor labels being close together.

interaction between p53 and MDM2 proteins (recombinant GST-tagged MDM2, biotinylated p53 peptide), sequence (Q00987 whole entry): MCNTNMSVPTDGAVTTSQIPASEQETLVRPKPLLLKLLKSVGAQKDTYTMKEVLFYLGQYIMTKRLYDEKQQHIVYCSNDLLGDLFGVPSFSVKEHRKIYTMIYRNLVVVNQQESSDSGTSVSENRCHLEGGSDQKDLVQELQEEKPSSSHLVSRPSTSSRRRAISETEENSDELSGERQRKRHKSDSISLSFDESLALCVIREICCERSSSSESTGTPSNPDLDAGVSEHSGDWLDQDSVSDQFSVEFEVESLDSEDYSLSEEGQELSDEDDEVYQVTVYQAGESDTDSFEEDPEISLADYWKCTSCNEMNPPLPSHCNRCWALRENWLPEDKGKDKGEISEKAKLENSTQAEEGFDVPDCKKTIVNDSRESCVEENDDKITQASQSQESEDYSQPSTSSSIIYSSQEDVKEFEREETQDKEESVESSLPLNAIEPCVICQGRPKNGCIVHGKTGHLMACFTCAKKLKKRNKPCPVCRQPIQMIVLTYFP

On to `CC(C)(C)C[C@@H]1CN(C(=O)NCC[C@H](O)CO)[C@H](c2cccc(Cl)c2F)[C@@]1(C#N)c1ccc(Cl)cc1F` (mixture of isomers) [Example 4, rac-(2S,3S,4S)-2-(3-chloro-2-fluoro-phenyl)-3-(4-chloro-2-fluoro-phenyl)-3-cyano-4-(2,2-dimethyl-propyl)-pyrrolidine-1-carboxylic acid ((S)-3,4-dihydroxy-butyl)-amide], for which the IC50 (in general, the midpoint of a concentration-inhibition curve) was determined as 269 nM.

Consider `CC(C)(C)C[C@@H]1CN(C(=O)c2ccc(C(=O)O)cc2)[C@H](c2cccc(Cl)c2F)[C@@]1(C#N)c1ccc(Cl)cc1F` (racemic) [Example 12, rac-4-[(2S,3S,4S)-2-(3-chloro-2-fluoro-phenyl)-3-(4-chloro-2-fluoro-phenyl)-3-cyano-4-(2,2-dimethyl-propyl)-pyrrolidine-1-carbonyl]-benzoic acid], for which the IC50 amounted to 644 nM.

For `CC(C)(C)C[C@@H]1CN(C(=O)Nc2cccc(-c3nnn[nH]3)c2)[C@H](c2cccc(Cl)c2F)[C@@]1(C#N)c1ccc(Cl)cc1F` (racemic) [Example 16, rac-(2S,3S,4S)-2-(3-chloro-2-fluoro-phenyl)-3-(4-chloro-2-fluoro-phenyl)-3-cyano-4-(2,2-dimethyl-propyl)-pyrrolidine-1-carboxylic acid [3-(1H-tetrazol-5-yl)-phenyl]-amide], the half-maximal inhibitory concentration (IC50) was found to be 3230 nM.

On to `CC(C)(C)C[C@@H]1CN(C(=O)Nc2ccncc2)[C@H](c2cccc(Cl)c2F)[C@@]1(C#N)c1ccc(Cl)cc1F` (racemic) [Example 48, rac-(2S,3S,4S)-2-(3-chloro-2-fluoro-phenyl)-3-(4-chloro-2-fluoro-phenyl)-3-cyano-4-(2,2-dimethyl-propyl)-pyrrolidine-1-carboxylic acid pyridin-4-ylamide], for which the IC50 amounted to 1730 nM.
